This test in a line: Reduction of viral RNA and protein in Huh7 cells containing HCV sub-genomic replicon. On the technique in general: In antiviral work, replicon cells carry a viral genome segment that copies itself.

Structures are written as SMILES.

Drawing on BindingDB's records for doi:10.1016/j.bmcl.2005.08.114 (Wyeth Research, 2005), this text covers EC50 for 1 compound.

Usually EC50 stands for the concentration at which the effect is half-maximal. A lower EC50 goes with an effect from little substance. As for `CCC[C@]1(CC(=O)O)OCCc2c1sc1c(C)cc(F)c(C#N)c21` [((R)-5-cyano-6-fluoro-8-methyl-1-propyl-3,4-dihydro-1H-benzo[4,5]thieno[2,3-c]pyran-1-yl)-acetic acid], the EC50 is 3.2 µM.
